According to article PMC11554305, “Functional identification of soluble uric acid as an endogenous inhibitor of CD38” (eLife, 2024):
Like-named read-outs stand apart in the source and are kept apart here.

Key:
[1] = Solubility and crystal precipitation in solution; assay type: physicochemical
Method: (§1) Guanosine was dissolved in DMSO and diluted in the reaction buffer for subsequent assays.
MSU crystals were prepared by the recrystallization of oversaturated sUA according to a previous report ([Martinon et al., 2006]). Improper preparation of sUA solution may introduce crystals to cause false-positive or false-negative results. […] In this study, the sUA solution was prepared according to an improved protocol ([Ma et al., 2020]). […] Then, sUA solution was immediately filtered by 0.2 μm filters and diluted to experimental concentration (up to 10 mg/dL, 595 μM) for cell experiments. […]

CD38 = assay: Hydrolase and cyclase activities of human and murine CD38; assay type: biochemical; details: for Effect on hydrolase and cyclase activities of human and murine CD38: sUA precursors and metabolite, above physiological levels, Figure 2B, C and supplement 1A–C; for Effect on CD38 activity: analogs and fragments, 5 to 500 μM, recombinant hCD38, THP-1 cells, WT lung tissues, Figure 2D, E
Method: The hydrolase activity of CD38 was measured according to a previous report ([de Oliveira et al., 2018]) with minor modifications. CD38 hydrolase activity was measured using 50 μM ε-NAD^+ as a substrate in hydrolase reaction buffer (250 mM sucrose, 40 mM Tris-HCl, pH 7.4). Briefly, cells or tissues were directly homogenized in blank reaction buffer on ice, and recombinant hCD38 was diluted in blank reaction buffer for subsequent assays. The tissue homogenates were centrifuged to collect the supernatant for enzyme assays. The loading volume of enzyme was 4–30 μL, the total volume of the reaction system was 3 mL. To detect enzyme inhibition, except when specified, the ligands were directly dissolved in hydrolase reaction buffer before pH adjustment, after which, the pH was immediately adjusted to 7.4. All reaction buffers, with or without ligands, were freshly prepared before each assay. For measurement of hydrolase activity, 3 mL reaction buffer containing enzyme, ε-NAD^+, and ligands at indicated concentrations was maintained at 37°C with constant stirring.
The cyclase activity of CD38 was measured as previously described ([Higashida et al., 1999]; [Jin et al., 2007]). CD38 cyclase activity was measured using 60 μM NGD as a substrate in cyclase reaction buffer (100 mM KCl, 10 μM CaCl2, and 50 mM Tris-HCl, pH 6.6). Tissues were cut into pieces and suspended in the buffer (5 mM MgCl2, 10 mM Tris-HCl, pH 7.3) at 4°C for 30 min. Then, the suspension was homogenized on ice, and the supernatant was collected after centrifugation. To collect the crude membrane fractions, the supernatant was centrifuged at 105,000×g for 30 min. The final pellet was resuspended in 10 mM Tris-HCl solution (pH 6.6) for cyclase assay. Homogenates of THP-1 or A549 cells, and recombinant hCD38 were used directly for cyclase assays. The loading volume of enzyme was 4–20 μL, the total volume of reaction system was 3 mL. To detect enzyme inhibition, except when specified, the ligands were directly dissolved in cyclase reaction buffer before pH adjustment, after which, the pH was immediately adjusted to 6.6. All reaction buffers, with or without ligands, were freshly prepared before each assay. For measurement of cyclase activity, 3 mL reaction buffer containing enzyme, NGD, and ligands at indicated concentrations was maintained at 37°C with constant stirring.
The reaction buffer for hydrolase or cyclase assays was excited at 300 nm, and fluorescence emission was measured every second at 410 nm by Shimazu RF-6000 spectrofluorometer. Hydrolase or cyclase activity was calculated from the linear portion of the time course by fitting a linear function to the data points recorded within 5 min.
as §1
For reversibility test, recombinant hCD38 was pre-incubated for 30 min in four conditions: (1) control reaction buffer; (2) in the presence of 100 μM substrate (ε-NAD^+ or NGD); (3) 500 μM sUA; (4) both substrate and sUA. Subsequently, the enzyme was diluted 100-fold in reaction buffer in the presence or absence of 500 μM sUA for activity assays using ε-NAD^+ or NGD. Naïve THP-1 and A549 cells were incubated with RPMI-1640 medium in the presence or absence of 500 μM sUA for 2 hr. The cells were collected and homogenized in the reaction buffer on ice with or without 500 μM sUA, samples were then diluted 100-fold in reaction buffer with or without 500 μM sUA for enzyme assay. Control group was not treated with sUA in all steps; sUA group was treated with sUA in each step; sUA release group was treated with sUA prior to dilution in sUA-free buffer for enzyme assays.

Row | Compound | Effect on hydrolase and cyclase activities of human and murine CD38 (CD38) | other results
1 | 8-oxoguanine [8-OG, reference compound] |  | Solubility in reaction buffer [1]: limited solubility
2 | Nc1nc2c(ncn2[C@@H]2O[C@H](CO)[C@@H](O)[C@H]2O)c(=O)[nH]1 [Guanosine, guanosine, reference compound] | hardly inhibited | Solubility in reaction buffer ([1]; tested only at 50 μM): limited solubility
3 | Nc1ncnc2c1ncn2[C@@H]1O[C@H](CO)[C@@H](O)[C@H]1O [Adenosine, adenosine] | hardly inhibited | 
4 | O=c1[nH]cc[nH]1 [1,3-DHI-2-one, 1,3-dihydroimidazol-2-one] |  | Effect on CD38 activity (CD38): did not affect CD38 activity
5 | O=c1[nH]cnc2nc[nH]c12 [Hypoxanthine, hypoxanthine] | hardly inhibited | 
6 | NC(=O)NC1NC(=O)NC1=O (stereo not drawn) [Allantoin, allantoin] | hardly inhibited | 
7 | O=c1cc[nH]c(=O)[nH]1 [Uracil, uracil] |  | Effect on CD38 activity (CD38): did not affect CD38 activity
8 | O=c1[nH]c(=O)c2nc[nH]c2[nH]1 [Xanthine, xanthine] | hardly inhibited | 
